According to patent US20140348819A1, “Methods of Treating Cancer” (Dana-Farber Cancer Institute, Inc., priority 2011, published 2014):

Tested on: six V600E BRAF melanoma cell lines
Assay: Screening of recombinant RTK ligands for ability to confer resistance to BRAFi (PLX4720) or MEKi (PD184352) (Table 4)
Assay type: cell-based, human
Set-up: ability of recombinant RTK ligand to confer resistance / ability of recombinant RTK ligand to confer resistance (screening value): scale not given here
Description: HGF is the only one that can substantially confer drug resistance to the cell lines.
The complexity of the tumor microenvironment is much greater than an in vitro co-culture system. Therefore, the inventors explored whether the activation of other RTKs could result in a similar resistance as that observed with the activation of MET. To this end, six V600E BRAF melanoma cell lines were tested for their resistance to either BRAFi (PLX4720) or MEKi (PD184352) after the addition of 22 RTK ligands that have the potential of activating almost all known RTKs. […] The activation of a selected subset of these RTKs was confirmed by western blotting and by high throughput tyrosine kinase phosphorylation profiling.

Collagen II
ability of recombinant RTK ligand to confer resistance (A2058, PD184352 - 1 uM, ligand 6.25 ng/ml): 0.97
ability of recombinant RTK ligand to confer resistance (A2058, PD184352 - 1 uM, ligand 25 ng/ml): 0.97
ability of recombinant RTK ligand to confer resistance (A2058, PD184352 - 1 uM, ligand 100 ng/ml): 0.99
ability of recombinant RTK ligand to confer resistance (A2058, PD184352 - 1 uM, ligand 400 ng/ml): 1.00
ability of recombinant RTK ligand to confer resistance (A2058, PD184352 - 1 uM, ligand 1600 ng/ml): 0.92
ability of recombinant RTK ligand to confer resistance (A2058, PLX4720 - 2 uM, ligand 6.25 ng/ml): 0.95
ability of recombinant RTK ligand to confer resistance (A2058, PLX4720 - 2 uM, ligand 25 ng/ml): 0.99
ability of recombinant RTK ligand to confer resistance (A2058, PLX4720 - 2 uM, ligand 100 ng/ml): 0.96
ability of recombinant RTK ligand to confer resistance (A2058, PLX4720 - 2 uM, ligand 400 ng/ml): 0.95
ability of recombinant RTK ligand to confer resistance (A2058, PLX4720 - 2 uM, ligand 1600 ng/ml): 0.96
ability of recombinant RTK ligand to confer resistance (C32, PD184352 - 1 uM, ligand 6.25 ng/ml): 0.99
ability of recombinant RTK ligand to confer resistance (C32, PD184352 - 1 uM, ligand 25 ng/ml): 1.03
ability of recombinant RTK ligand to confer resistance (C32, PD184352 - 1 uM, ligand 100 ng/ml): 1.06
ability of recombinant RTK ligand to confer resistance (C32, PD184352 - 1 uM, ligand 400 ng/ml): 1.18
ability of recombinant RTK ligand to confer resistance (C32, PD184352 - 1 uM, ligand 1600 ng/ml): 1.14
ability of recombinant RTK ligand to confer resistance (C32, PLX4720 - 2 uM, ligand 6.25 ng/ml): 1.03
ability of recombinant RTK ligand to confer resistance (C32, PLX4720 - 2 uM, ligand 25 ng/ml): 0.99
ability of recombinant RTK ligand to confer resistance (C32, PLX4720 - 2 uM, ligand 100 ng/ml): 0.99
ability of recombinant RTK ligand to confer resistance (C32, PLX4720 - 2 uM, ligand 400 ng/ml): 1.00
ability of recombinant RTK ligand to confer resistance (C32, PLX4720 - 2 uM, ligand 1600 ng/ml): 1.02
ability of recombinant RTK ligand to confer resistance (Colo 829, PD184352 - 1 uM, ligand 6.25 ng/ml): 0.95
ability of recombinant RTK ligand to confer resistance (Colo 829, PD184352 - 1 uM, ligand 25 ng/ml): 1.02
ability of recombinant RTK ligand to confer resistance (Colo 829, PD184352 - 1 uM, ligand 100 ng/ml): 1.04
ability of recombinant RTK ligand to confer resistance (Colo 829, PD184352 - 1 uM, ligand 400 ng/ml): 1.02
ability of recombinant RTK ligand to confer resistance (Colo 829, PD184352 - 1 uM, ligand 1600 ng/ml): 0.99
ability of recombinant RTK ligand to confer resistance (Colo 829, PLX4720 - 2 uM, ligand 6.25 ng/ml): 1.00
ability of recombinant RTK ligand to confer resistance (Colo 829, PLX4720 - 2 uM, ligand 25 ng/ml): 1.13
ability of recombinant RTK ligand to confer resistance (Colo 829, PLX4720 - 2 uM, ligand 100 ng/ml): 1.06
ability of recombinant RTK ligand to confer resistance (Colo 829, PLX4720 - 2 uM, ligand 400 ng/ml): 1.02
ability of recombinant RTK ligand to confer resistance (Colo 829, PLX4720 - 2 uM, ligand 1600 ng/ml): 0.98
ability of recombinant RTK ligand to confer resistance (G-361, PD184352 - 1 uM, ligand 6.25 ng/ml): 0.96
ability of recombinant RTK ligand to confer resistance (G-361, PD184352 - 1 uM, ligand 25 ng/ml): 1.00
ability of recombinant RTK ligand to confer resistance (G-361, PD184352 - 1 uM, ligand 100 ng/ml): 0.96
ability of recombinant RTK ligand to confer resistance (G-361, PD184352 - 1 uM, ligand 400 ng/ml): 1.01
ability of recombinant RTK ligand to confer resistance (G-361, PD184352 - 1 uM, ligand 1600 ng/ml): 1.03
ability of recombinant RTK ligand to confer resistance (G-361, PLX4720 - 2 uM, ligand 6.25 ng/ml): 0.97
ability of recombinant RTK ligand to confer resistance (G-361, PLX4720 - 2 uM, ligand 25 ng/ml): 0.91
ability of recombinant RTK ligand to confer resistance (G-361, PLX4720 - 2 uM, ligand 100 ng/ml): 0.92
ability of recombinant RTK ligand to confer resistance (G-361, PLX4720 - 2 uM, ligand 400 ng/ml): 0.96
ability of recombinant RTK ligand to confer resistance (G-361, PLX4720 - 2 uM, ligand 1600 ng/ml): 0.92
ability of recombinant RTK ligand to confer resistance (SK-MEL-5, PD184352 - 1 uM, ligand 6.25 ng/ml): 0.96
ability of recombinant RTK ligand to confer resistance (SK-MEL-5, PD184352 - 1 uM, ligand 25 ng/ml): 0.92
ability of recombinant RTK ligand to confer resistance (SK-MEL-5, PD184352 - 1 uM, ligand 100 ng/ml): 0.94
ability of recombinant RTK ligand to confer resistance (SK-MEL-5, PD184352 - 1 uM, ligand 400 ng/ml): 0.99
ability of recombinant RTK ligand to confer resistance (SK-MEL-5, PD184352 - 1 uM, ligand 1600 ng/ml): 0.94
ability of recombinant RTK ligand to confer resistance (SK-MEL-5, PLX4720 - 2 uM, ligand 6.25 ng/ml): 1.03
ability of recombinant RTK ligand to confer resistance (SK-MEL-5, PLX4720 - 2 uM, ligand 25 ng/ml): 1.10
ability of recombinant RTK ligand to confer resistance (SK-MEL-5, PLX4720 - 2 uM, ligand 100 ng/ml): 1.06
ability of recombinant RTK ligand to confer resistance (SK-MEL-5, PLX4720 - 2 uM, ligand 400 ng/ml): 1.00
ability of recombinant RTK ligand to confer resistance (SK-MEL-5, PLX4720 - 2 uM, ligand 1600 ng/ml): 1.08
ability of recombinant RTK ligand to confer resistance (SK-MEL-28, PD184352 - 1 uM, ligand 6.25 ng/ml): 0.98
ability of recombinant RTK ligand to confer resistance (SK-MEL-28, PD184352 - 1 uM, ligand 25 ng/ml): 1.10
ability of recombinant RTK ligand to confer resistance (SK-MEL-28, PD184352 - 1 uM, ligand 100 ng/ml): 0.98
ability of recombinant RTK ligand to confer resistance (SK-MEL-28, PD184352 - 1 uM, ligand 400 ng/ml): 0.94
ability of recombinant RTK ligand to confer resistance (SK-MEL-28, PD184352 - 1 uM, ligand 1600 ng/ml): 1.07
ability of recombinant RTK ligand to confer resistance (SK-MEL-28, PLX4720 - 2 uM, ligand 6.25 ng/ml): 0.94
ability of recombinant RTK ligand to confer resistance (SK-MEL-28, PLX4720 - 2 uM, ligand 25 ng/ml): 1.12
ability of recombinant RTK ligand to confer resistance (SK-MEL-28, PLX4720 - 2 uM, ligand 100 ng/ml): 0.98
ability of recombinant RTK ligand to confer resistance (SK-MEL-28, PLX4720 - 2 uM, ligand 400 ng/ml): 0.95
ability of recombinant RTK ligand to confer resistance (SK-MEL-28, PLX4720 - 2 uM, ligand 1600 ng/ml): 0.96
